From US9896482B2, “Beta hairpin peptides having antiviral properties against Dengue virus” (CENTRO DE INGENIERÍA GENÉTICA Y BIOTECNOLOGÍA, priority 2014, dated 2018)
Read-outs that look alike come from different tables or passages of the source. Marks after values point to notes of the source that are not given here. Where a SMILES comes first, the peptide text is derived from it. Bridges are numbered along the chain shown (N, C = ends). [ ]: non-standard residue; d: D form.

Tests used:
[1] = tested on: DENV 4 (NIBSC code TVP360); test: Plaque reduction assay in Vero cells, DENV4; assay type: cell-based, Dengue virus; details: m.o.i. 0.001, read-out: Antiviral activity IC50 vs DENV4
Procedure: (§1) The cells were grown in 24 well plates until the monolayer reached approximately 90% confluence, after which they were washed twice with MEM medium without Fetal Bovine Serum (FBS). Then, peptide dilutions were added and the cell-peptide mixtures were incubated typically for 1 hour at 37° C., followed by the addition of a DENV serotype 2 preparation (NIBSC code S16803) at a multiplicity of infection (m.o.i.) of 0.001. The cells were then incubated for 1 hour at 37° C., and once the period of incubation with the viral inoculum concluded, were washed again to remove unbound virions and incubated for 5 days at 37° C. in high density medium (MEM supplemented with non-essential amino acids, 1% FBS, 1% carboxymethylcellulose) in order to let viral plaques form. Afterwards, the cells were stained with 0.1% Naphtol Blue Black in 0.15 M sodium acetate. Two replicates per experimental point were used in each assay, and three independent determinations were performed for each sample.
(§2) Next, it was decided to compare the antiviral activity of peptides PHB4 and HDIII3CL against all four DENV serotypes, with the objective of comparing their respective IC50 values. […]

[2] = tested on: DENV serotype 2 (NIBSC code S16803); test: Plaque reduction assay in Vero cells, DENV2; assay type: cell-based, Dengue virus
Procedure: as §1
Next, it was decided to compare the antiviral activity of peptides PHB4 and HDIII3CL against all four DENV serotypes, with the objective of comparing their respective IC50 values. This comparison was performed with plaque reduction assays on Vero cells, adding the viral inoculum for each serotype (DENV1, NIBSC code West Pac 74, DENV2, NIBSC, code S16803; DENV3, NIBSC, code CH53489; DENV 4, NIBSC code TVP360) at a m.o.i. of 0.001.

DENV1 = test: In vivo protection assay, intracranial challenge, DENV1; parameters: species or system Balb/c mice; details: 30 μg peptide inoculated intracranially with 10 median lethal doses, 21 days
Procedure: An experiment was set up to evaluate the in vivo antiviral activity of peptide PHB4 and compare it to that of peptide HDIII3CL. For this purpose, groups of 12 adult Balb/c mice (20 g average body weight) were anesthetized by ether inhalation and inoculated intracranially with 20 μL of viral preparations containing 10 times the median lethal dose of this model and the peptide to be evaluated. The animals recovered quickly and already appeared alert five minutes after the treatment, and were monitored afterwards for 21 days. The data were evaluated using the Kaplan-Meier logarithmic rank test.

[3] = Transmission electron microscopy of aggregate morphology; assay type: physicochemical
Procedure: In order to analyze the morphology of the aggregates formed by peptide PHB4, peptide solutions were subjected to different experimental treatments where conditions such as temperature, incubation time and the presence of electrolytes were manipulated to facilitate aggregation (FIG. 10). For this particular study, two peptide solutions (2 mg/mL, 0.73 mM) were prepared, one in water and another in PBS. A sample was then taken from each, directly fixed on the grids and observed under the microscope (T0 samples). The remainder was incubated for 1 hour at 50° C. and then samples were taken and fixed immediately (T1 samples). The remainder was then incubated for an additional 2 hours at room temperature, and then fixed (T2 samples).

DENV2 strain S16803 = tested on: DENV2 strain S16803
Procedure: The antiviral activity of peptide PHB4 was evaluated after treatments facilitating its aggregation or in the presence of different agents that modulate aggregation, with the purpose of examining their effect on the inhibitory activity of this peptide for the infection of Huh7.5 cells with DENV2 strain S16803. Huh7.5, a human hepatoma-derived cell line, was selected not only because it is permissive for DENV2, but because of its relevance as an experimental system from the viewpoint of DENV pathogenesis (Lin Y L, et al. (2000) J Med Virol.; 60(4):425-31).
Antiviral activity was evaluated in virus yield assays, in which 80-90% confluent Huh7.5 monolayers were washed twice with non-supplemented DMEM and then infected at a m.o.i of 0.01 for 2 h at 37° C. and 5% CO2 in the presence of the different peptide preparations, after which the viral inoculum was removed by washing with non-supplemented DMEM, and the cells were grown in DMEM supplemented with 2% FBS. Cell supernatants were collected at 24 h p.i., and virus yields were determined by titrating the supernatant in a plaque formation assay (Morens D. M., et al. (1985). N. J. Clin. Microbiology; 22: 250-254).
Therefore, a first series of assays was set up in which, starting from a 20 μM solution of the peptide in water, dilutions were prepared in MEM spanning the 10-0.01 μM concentration range, which were then incubated in parallel at 10° C. and 37° C. for 2 hours and then used in a viral inhibition assay. Non-incubated peptide dilutions (that is, prepared right before the viral inhibition assay) were used as controls.
A second experiment was designed to determine the influence of aggregation time on the antiviral potency of peptide PHB4 (FIG. 18). […] This incubation with HSA was performed in parallel at either 10° C. or 37° C.

[4] = tested on: DENV3 (NIBSC code CH53489); test: Plaque reduction assay in Vero cells, DENV3; assay type: cell-based, Dengue virus; details: m.o.i. 0.001, read-out: Antiviral activity IC50 vs DENV3
Procedure: as §1, §2

[5] = Light scattering aggregation kinetics; assay type: physicochemical
Procedure: Light scattering was used to monitor the aggregation of peptide PHB4. The measurements were performed on a Shimadzu™ RF-5301PC (Shimadzu, Japan) spectrofluorimeter, acquiring data with the software provided by the instrument manufacturer. The wavelengths of the incident light beam (excitation) and the detector (emission) were set to 320 nm, using excitation and emission apertures of 5 nm. The scattering of light due to the peptide was calculated by subtracting, from the intensity of the light dispersed by the peptide, the intensity of the light dispersed by a solution without peptide (blank). Variations on light scattering due to the dissolution of the peptide in PBS were studied by acquiring data in time course mode, with a measurement frequency of 1 or 2 per second. The solutions of PHB4 in PBS were prepared by mixing one part of a solution of the peptide in water with one part of a PBS 2X solution.

**Q.** Which IC50 [1] does the source give for CC[C@H](C)[C@@H]1NC(=O)[C@H](Cc2ccccc2)NC(=O)[C@H](Cc2c[nH]c3ccccc23)NC(=O)[C@H](CC(N)=O)NC(=O)[C@H](C(C)C)NC(=O)[C@H](CCCCN)NC(=O)[C@H](Cc2c[nH]c3ccccc23)NC(=O)[C@H](CCCCN)NC(=O)[C@H]2CCCN2C(=O)[C@H](CCCNC(=N)N)NC(=O)[C@H]([C@@H](C)O)NC(=O)[C@H](Cc2c[nH]c3ccccc23)NC(=O)[C@H](Cc2ccc(O)cc2)NC(=O)[C@H](C(C)C)NC(=O)[C@H](CCC(=O)O)NC(=O)[C@H]([C@@H](C)CC)NC(=O)[C@@H](N)CSSC[C@@H](C(=O)N[C@@H](CCCCN)C(=O)N[C@@H](CCCCN)C(=O)N[C@@H](CCCCN)C(N)=O)NC1=O [PHB4] (H-CIEVYWTR[dP]KWKVNWFICKKK-NH2; disulfide 1-18; N-terminus assumed) here?
**A.** 10 nM

**Q.** What about the IC50 ([2]; DENV2, plaque reduction, NA = no detectable activity at concentrations lower than or equal to 100 μM, read-out: IC50, antiviral activity in Vero cells (50% inhibitory activity)) of the same compound?
**A.** 3 nM

**Q.** What about the IC50 ([2]; Vero cells, m.o.i. 0.001, read-out: Antiviral activity IC50 vs DENV2) of the same compound?
**A.** 3 nM

**Q.** What about the “Fold more potent than peptide HDIII3CL” value ([2]; depending on serotype, DENV1-4, Vero cells) of the same compound?
**A.** 4000- to 7500 fold

**Q.** And the “Protection (%) DENV1” value (DENV1)?
**A.** 100*** %

**Q.** And the “Size of protofibril/fibril-type filamentous structures” value ([3]; 2 mg/mL in water, after 50° C. treatment)?
**A.** 5-10 nm

**Q.** And the Diameter of particulates ([3]; 2 mg/mL in water, room temperature)?
**A.** 5-20 nm

**Q.** What about the “Size of filamentous structures” value ([3]; 2 mg/mL, immediately after dissolving in PBS) of the same compound?
**A.** 5-20 nm

**Q.** And the “Variation in potency with incubation temperature” value (DENV2 strain S16803; 10° C. vs 37° C. pre-incubation)?
**A.** 24 fold

**Q.** What about the IC100 (DENV2 strain S16803; Huh7.5 cells, non-incubated peptide in MEM) of the same compound?
**A.** 10 µM

**Q.** What about the IC50 (DENV2 strain S16803; read-out: IC50, 2 hrs-10° C., Huh7.5 cells, peptide pre-incubated in MEM 2 h at 10° C.) of the same compound?
**A.** 37 nM

**Q.** What about the IC50 (DENV2 strain S16803; read-out: IC50, 2 hrs-37° C., Huh7.5 cells, peptide pre-incubated in MEM 2 h at 37° C.) of the same compound?
**A.** 890 nM

**Q.** What about the IC50 (DENV2 strain S16803; read-out: IC50, no incubation, Huh7.5 cells, peptide dissolved in MEM, non-incubated) of the same compound?
**A.** 160 nM

**Q.** And the IC50 [4]?
**A.** 5 nM

**Q.** And the “Maximum of ratio of dispersed light relative to time zero” value ([5]; 5 μM peptide in PBS)?
**A.** 11

**Q.** What about the “Maximum of ratio of dispersed light relative to time zero” value ([5]; 10 μM peptide in PBS) of the same compound?
**A.** 7

**Q.** What about the “Latency period before increase of dispersed light” value ([5]; dissolved into PBS) of the same compound?
**A.** < 2 min
